This note sets out measurements from patent publication US7863408B2, “Body fluid compatible and biocompatible resin” (Asahi Kasei Kabushiki Kaisha, priority 2002, dated 2011).

Data set [1] relates to Colon 26 tumor cells. Briefly: Antitumor assay, Colon 26. Format: in vivo, mouse. The note with it: Balb/C mice, 50 mg/kg in terms of paclitaxel. As for the experimental part: Further, a control solution was prepared by dissolving paclitaxel as such in a mixture of ethanol, Cremophore EL (manufactured and sold by Sigma, U.S.A.) and physiological saline. Thus, two types of solutions, namely, a test sample solution and a control solution were obtained. Six female Balb/C mice (six weeks old) were divided into two groups, each consisting of three mice, and subsequently, a 4% suspension of Colon 26 tumor cells was intradermally transplanted to the flank of each of the mice. […] Each mouse of the other group of the two groups received administration of the control solution, wherein the control solution was administered in the same manner as in the case of the administration of the test sample solution (i.e., the dose of paclitaxel was 50 mg/kg), thereby obtaining a control group of mice. Separately, a group consisting of five female Balb/C mice (six weeks old), which were transplanted with Colon 26 tumor cells in the same manner as mentioned above, was provided. Each of the mice of such group received the administration of only physiological saline in the same manner as in the case of the administration of the test sample solution, to thereby obtain a non-treated group of mice. Each of the above-mentioned administration of the test sample solution, control solution and physiological saline was performed every 4 days, 7 times in total in the above-mentioned manner.
Evaluation was made of the antitumor activity in terms of the change (with the lapse of time) of the average tumor volume (%). The tumor volume was determined as follows. The major and minor diameters (a and b, respectively) (each in mm) of the tumor were externally measured, and the tumor volume (V) was obtained according to the following formula.
Further, a control solution was prepared by dissolving paclitaxel as such in a mixture of ethanol, Cremophore EL (manufactured and sold by Sigma, U.S.A.) and physiological saline. Thus, five types of solutions, namely, four types of test sample solutions and one control solution were obtained. Twenty-five female Balb/C mice (six weeks old) were divided into five groups, each consisting of five mice, and subsequently, a 4% suspension of Colon 26 tumor cells was intradermally transplanted to the flank of each of the mice. After two days from the transplantation, four groups of the five groups of mice respectively received the administration of the four test sample solutions obtained above, wherein the dose of the compound was 50 mg/kg in terms of paclitaxel. Each mouse of the other group of the five groups received administration of the control solution, wherein the control solution was administered in the same manner as in the case of the administration of the test sample solution (i.e., the dose of paclitaxel was 50 mg/kg), thereby obtaining a control group of mice. Separately, a group consisting of nine female Balb/C mice (six weeks old), which were transplanted with Colon 26 tumor cells in the same manner as mentioned above, was provided. Each of the mice of such group received the administration of only physiological saline in the same manner as in the case of the administration of the test sample solution, to thereby obtain a non-treated group of mice. Each of the above-mentioned administration of the test sample solution, control solution and physiological saline was performed every 7 days, 4 times in total in the above mentioned manner.
Evaluation was made of the antitumor activity in terms of the change (with the lapse of time) of the average tumor volume (%). The tumor volume was determined as follows. The major and minor diameters (a and b, respectively) (each in mm) of the tumor were externally measured, and the tumor volume was obtained according to the following formula.

Data set [2] is described as follows: Solubility in physiological saline. Format: physicochemical. The note with it: for dissolution of 10 mg compound in 0.1 ml of physiological saline / dissolution ratio in terms of camptothecin: Example 162; for dissolution ratio in terms of camptothecin: physiological saline, 10 mg compound in 0.1 ml. As to the method: 10 mg of each of compounds (203) and (206) was precisely weighed and individually added to 0.1 ml of physiological saline.

Data set [3] concerns B16 melanoma cells. The note with it: Example 149; C57BL/6 mice; 50 mg/kg in terms of paclitaxel, tail-vein injection; six days after administration.
Experimental: Further, a control solution was prepared by dissolving paclitaxel as such in a mixture of ethanol, Cremophore EL (manufactured and sold by Sigma, U.S.A.) and physiological saline. Thus, two types of solutions, namely, a test sample solution and a control solution were obtained. Twenty-one female C57BL/6 mice (six weeks old) were divided into three groups, each consisting of seven mice, and subsequently, B16 melanoma cells were intradermally transplanted to the groin of each of the mice (5×10^6 cells per mouse). […] Each mouse of the other one group of the three groups received the administration of the control solution, wherein the control solution was administered in substantially the same manner as in the above-mentioned administration of the test sample solution, except that the dose of paclitaxel was 50 mg/kg, thereby obtaining a control group of mice. Separately, a group consisting of thirteen female C57BL/6 mice (six weeks old), which were transplanted with B16 melanoma cells in the same manner as mentioned above, was provided. Each of the mice of such group received the administration of physiological saline, to thereby obtain a non-treated group of mice.
[4] abbreviates: Example 151, every 7 days, 4 times.

With `CC(=O)O[C@H]1C(=O)[C@@]2(C)[C@H]([C@H](OC(=O)c3ccccc3)[C@]3(O)C[C@H](OC(=O)[C@H](O)[C@@H](NC(=O)c4ccccc4)c4ccccc4)C(C)=C1C3(C)C)[C@]1(OC(C)=O)CO[C@@H]1C[C@@H]2O` [paclitaxel, reference compound], the “order of the magnitudes of the antitumor activity” value (“order” for short) in data set [1] (setting [4]) was “(177)/(179)>(181)>(183)/paclitaxel”. In addition, the “dissolution of 1 mg in 10 ml of physiological saline” value in data set [2] (Example 145) is recorded as “not able to be completely dissolved”.

Regarding “carboxymethylated polyether-2′-Gly-paclitaxel [Compound (177)]”, in data set [1] (setting [4]), the “antitumor activity (average tumor volume with time) compared to paclitaxel as such” value is on record as “significantly excellent” and the “order” value is on record as “(177)/(179)>(181)>(183)/paclitaxel”.

In the case of “carboxymethylated polyether-2′-Ile-paclitaxel [(183)]”, the “order” value in data set [1] (setting [4]) is “(177)/(179)>(181)>(183)/paclitaxel”.

Consider “carboxymethylated polyether-2′-Ala-paclitaxel [(179)]”, for which, in data set [1] (setting [4]), the “antitumor activity (average tumor volume with time) compared to paclitaxel as such” value is “significantly excellent” and the “order” value is “(177)/(179)>(181)>(183)/paclitaxel”.

Regarding “carboxymethylated polyether-2′-Gly-Gly-Phe-Gly-paclitaxel [Compound (197)]”, the “antitumor activity (average tumor volume with time) compared to paclitaxel as such” value in data set [1] (Example 150, every 4 days, 7 times) was “significantly excellent”. Moreover, the “antitumor activity (relative average tumor volume) compared to paclitaxel as such” value in data set [3] was “significantly excellent”.

Regarding “carboxymethylated polyether-20-Gly-Gly-Phe-Gly-camptothecin [(206)]”, in data set [2], the “dissolution of 10 mg compound in 0.1 ml of physiological saline” value is on record as “completely dissolved” and the “dissolution ratio in terms of camptothecin” value amounted to 4.5 mg/mL.

In the case of “carboxymethylated polyether-2′-Leu-paclitaxel [(181)]”, the “order” value in data set [1] (setting [4]) is reported as “(177)/(179)>(181)>(183)/paclitaxel”.

With “carboxymethylated polyether-20-Gly-camptothecin [Compound (203)]”, in data set [2], the “dissolution of 10 mg compound in 0.1 ml of physiological saline” value is listed as “completely dissolved” and the “dissolution ratio in terms of camptothecin” value is 3.5 mg/mL.
